Measured values as given in patent US11365204B2, “Substituted dihydrothienopyrimidines and their use as phosphodiesterase inhibitors” (UNION therapeutics A/S, priority 2017, dated 2022).

Experiments:
[1] = biological target: human PDE4D catalytic domain (UniProt no. Q08499 [S380-L740]) (Homo sapiens (Human), UniProt Q08499); assay: PDE4 assay (TR-FRET, cAMP hydrolysis); format: biochemical; conditions: read-out: PDE4 IC50 range
Method: The human PDE4D catalytic domain (UniProt no. Q08499 [S380-L740]) was incubated with a mixture of non-labelled cAMP (cyclic adenosine monophosphate) and fluorescein amidite (FAM) conjugated cAMP and titrated test or reference compound.
Following brief incubation the enzymatic reaction was stopped by addition of binding buffer containing nanoparticles with immobilized trivalent metal ions capable of binding 1) AMP phospho groups and 2) terbium (Tb) donor fluorophores. Subsequent excitation of the Tb donor triggered time-resolved FRET to adjacent FAM acceptor molecules resulting in light emission. In the presence of a PDE4 inhibitor, AMP generation was reduced resulting in a lower fluorescence signal. The cAMP phosphodiester is not bound by the detection system.
Results were expressed as IC50 values (nM) calculated from inhibition curves where the TR-FRET signal was normalized to Tb fluorescence intensity and the negative (DMSO vehicle) and positive (10 microM a PDE4 inhibitor reference compound) controls.

[2] = tested on: Human peripheral blood mononuclear cells (PBMC); assay: TNF-α release from LPS-stimulated PBMC; format: cell-based; conditions: Lipopolysaccharide 1 microg/ml, 18 hours, AlphaLISA, read-out: TNF-α IC50 range
Method: Human peripheral blood mononuclear cells (PBMC) were isolated from fresh buffy coats by density centrifugation using lymphoprep tubes (Medinor). Frozen PBMC's were washed in serum free assay buffer (RPMI1640 with 25 mM HEPES, 1% pen/strep, […] L glutamine, 0.5% human serum albumin) and living cells counted. Lipopolysaccharide (1 microg/ml; SIGMA) was added to the cells which were then transferred to 384 well tissue culture plates ([…]) containing titrated test compounds. The cells were incubated for 18 hours at 37° C. in serum free assay buffer and the level of TNFalpha in the supernatant was quantitated by AlphaLISA (PerkinElmer) by measuring fluorescence intensity at 615 nm.
Results were expressed as IC50 values calculated from inhibition curves using as controls the secretion in LPS stimulated wells and the secretion in cells incubated with 10 microM of a PDE4 inhibitor reference compound.

human PDE4D catalytic domain, sequence (Q08499 380-740): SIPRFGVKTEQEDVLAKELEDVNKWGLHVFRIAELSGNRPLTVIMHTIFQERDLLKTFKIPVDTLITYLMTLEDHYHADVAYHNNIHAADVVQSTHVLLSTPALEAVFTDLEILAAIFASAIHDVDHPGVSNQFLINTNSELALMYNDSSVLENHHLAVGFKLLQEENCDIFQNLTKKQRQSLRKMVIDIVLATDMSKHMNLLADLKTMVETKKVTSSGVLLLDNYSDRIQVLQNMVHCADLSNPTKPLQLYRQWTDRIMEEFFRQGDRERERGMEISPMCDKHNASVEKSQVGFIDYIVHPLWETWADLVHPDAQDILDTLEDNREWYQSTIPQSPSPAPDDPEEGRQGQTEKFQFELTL

SMILES	IC50 [1]	IC50 [2]
O=C(OC1CN(c2nc3c(c(NC4CC5(COC5)C4)n2)[S+]([O-])CC3)C1)c1cnsc1 (racemic) [Example 65, [1-[4-(6-oxaspiro[3.3]-heptan-2-ylamino)-5-oxido-6,7-dihydrothieno-[3,2-d]pyrimidin-5-ium-2-yl]azetidin-3-yl] isothia-zole-4-carboxylate]	< 100 nM	< 100 nM
O=C(OC1CN(c2nc3c(c(NC4CC5(COC5)C4)n2)[S@@+]([O-])CC3)C1)c1cscn1 (single isomer, unassigned) [Example 70]	< 100 nM	< 100 nM
O=C(OC1CN(c2nc3c(c(NC4CC5(COC5)C4)n2)[S@+]([O-])CC3)C1)c1cscn1 (single isomer, unassigned) [Example 71]	100 to 500 nM	> 500 nM
CN(c1nc(N2CC(OC(=O)c3cnsc3)C2)nc2c1[S+]([O-])CC2)C1CCOCC1 (stereo in doubt) [Example 4, [1-[(5R)-4-[Methyl(tetrahydropyran-4-yl)amino]-5-oxido-6,7-dihydrothieno[3,2-d]pyrimidin-5-ium-2-yl]azetidin-3-yl] isothiazole-4-carboxylate]	< 100 nM	< 100 nM
CN(c1nc(N2CC(OC(=O)c3cscn3)C2)nc2c1[S+]([O-])CC2)C1CCOCC1 (stereo in doubt) [Example 6, [1-[(5R)-4-[Methyl(tetrahydropyran-4-yl)amino]-5-oxido-6,7-dihydrothieno[3,2-d]pyrimidin-5-ium-2-yl]azetidin-3-yl] thiazole-4-carboxylate]	< 100 nM	< 100 nM
O=C(OC1CN(c2nc3c(c(NC4CC5(COC5)C4)n2)[S+]([O-])CC3)C1)c1cnsc1 (stereo in doubt) [Example 68, [1-[(5R)-4-(6-oxaspiro-[3.3]heptan-2-ylamino)-5-oxido-6,7-dihydrothieno-[3,2-d]pyrimidin-5-ium-2-yl]azetidin-3-yl] isothia-zole-4-carboxylate]	< 100 nM	< 100 nM
O=C(OC1CN(c2nc3c(c(NC4CC5(COC5)C4)n2)[S+]([O-])CC3)C1)c1cnsc1 (stereo in doubt) [Example 69, [1-[(5S)-4-(6-oxaspiro-[3.3]heptan-2-ylamino)-5-oxido-6,7-dihydrothieno-[3,2-d]pyrimidin-5-ium-2-yl]azetidin-3-yl] isothia-zole-4-carboxylate]	100 to 500 nM	> 500 nM
O=C(OC1CN(c2nc3c(c(NC4CCOCC4)n2)[S@@+]([O-])CC3)C1)c1cnsc1 [Example 1, [1-[(5R)-5-Oxido-4-(tetrahydropyran-4-ylamino)-6,7-dihydrothieno[3,2-d]pyrimidin-5-ium-2-yl]azetidin-3-yl] isothiazole-4-carboxylate]	< 100 nM	< 100 nM
O=C(OC1CN(c2nc3c(c(NC4CCOCC4)n2)[S@@+]([O-])CC3)C1)c1cscn1 [Example 2, [1-[(5R)-5-Oxido-4-(tetrahydropyran-4-ylamino)-6,7-dihydrothieno[3,2-d]pyrimidin-5-ium-2-yl]azetidin-3-yl] thiazole-4-carboxylate]	< 100 nM	< 100 nM
CN(c1nc(N2CC(OC(=O)c3cnsc3)C2)nc2c1[S+]([O-])CC2)C1CCOCC1 (centres unmarked) [Example 3, [1-[4-[Methyl(tetrahydropyran-4-yl)amino]-5-oxido-6,7-dihydrothieno[3,2-d]pyrimidin-5-ium-2-yl]azetidin-3-yl] isothiazole-4-carboxylate]	< 100 nM	< 100 nM
CN(c1nc(N2CC(OC(=O)c3cscn3)C2)nc2c1[S+]([O-])CC2)C1CCOCC1 (centres unmarked) [Example 5, [1-[4-[Methyl(tetrahydropyran-4-yl)amino]-5-oxido-6,7-dihydrothieno[3,2-d]pyrimidin-5-ium-2-yl]azetidin-3-yl] thiazole-4-carboxylate]	< 100 nM	< 100 nM
CCN(c1nc(N2CC(OC(=O)c3cnsc3)C2)nc2c1[S+]([O-])CC2)C1CCOCC1 (centres unmarked) [Example 7, [1-[4-[Ethyl(tetrahydropyran-4-yl)amino]-5-oxido-6,7-dihydrothieno[3,2-d]pyrimidin-5-ium-2-yl]azetidin-3-yl] isothiazole-4-carboxylate]	100 to 500 nM	100 to 500 nM
CCN(c1nc(N2CC(OC(=O)c3cscn3)C2)nc2c1[S+]([O-])CC2)C1CCOCC1 (centres unmarked) [Example 8, [1-[4-[Ethyl(tetrahydropyran-4-yl)amino]-5-oxido-6,7-dihydrothieno[3,2-d]pyrimidin-5-ium-2-yl]azetidin-3-yl] thiazole-4-carboxylate]	100 to 500 nM	100 to 500 nM
CCCN(c1nc(N2CC(OC(=O)c3cnsc3)C2)nc2c1[S+]([O-])CC2)C1CCOCC1 (centres unmarked) [Example 9, [1-[4-[Propyl(tetrahydropyran-4-yl)amino]-5-oxido-6,7-dihydrothieno[3,2-d]pyrimidin-5-ium-2-yl]azetidin-3-yl] isothiazole-4-carboxylate]	> 500 nM	> 500 nM
CCCN(c1nc(N2CC(OC(=O)c3cscn3)C2)nc2c1[S+]([O-])CC2)C1CCOCC1 (centres unmarked) [Example 10, [1-[4-[Propyl(tetrahydropyran-4-yl)amino]-5-oxido-6,7-dihydrothieno[3,2-d]pyrimidin-5-ium-2-yl]azetidin-3-yl] thiazole-4-carboxylate]	> 500 nM	> 500 nM
O=C(OC1CN(c2nc3c(c(NC4CCOCC4)n2)[S@@+]([O-])CC3)C1)C1CCCC1 [Example 11, [1-[(5R)-5-oxido-4-(tetrahydropyran-4-ylamino)-6,7-dihydro-thieno[3,2-d]pyrimidin-5-ium-2-yl]azetidin-3-yl] cyclopentanecarboxylate]	< 100 nM	< 100 nM
O=C(OC1CN(c2nc3c(c(NC4CCOCC4)n2)[S@@+]([O-])CC3)C1)C1CCOCC1 [Example 12, [1-[(5R)-5-oxido-4-(tetrahydropyran-4-ylamino)-6,7-dihydrothieno[3,2-d]pyrimidin-5-ium-2-yl]azetidin-3-yl] tetrahydropyran-4-carboxylate]	100 to 500 nM	< 100 nM
COCCC(=O)OC1CN(c2nc3c(c(N(C)C4CCOCC4)n2)[S+]([O-])CC3)C1 (centres unmarked) [Example 13, [1-[4-[methyl(tetra-hydropyran-4-yl)amino]-5-oxido-6,7-dihydro-thieno[3,2-d]pyrimidin-5-ium-2-yl]azetidin-3-yl] 3-methoxypropanoate]	100 to 500 nM	100 to 500 nM
CN(c1nc(N2CC(OC(=O)C3CC(O)C3)C2)nc2c1[S+]([O-])CC2)C1CCOCC1 (centres unmarked) [Example 14, [1-[4-[methyl(tetra-hydropyran-4-yl)amino]-5-oxido-6,7-dihydro-thieno[3,2-d]pyrimidin-5-ium-2-yl]azetidin-3-yl] 3-hydroxycyclobutane-carboxylate]	100 to 500 nM	100 to 500 nM
CSCCC(=O)OC1CN(c2nc3c(c(N(C)C4CCOCC4)n2)[S+]([O-])CC3)C1 (centres unmarked) [Example 15, [1-[4-[methyl(tetra-hydropyran-4-yl)amino]-5-oxido-6,7-dihydro-thieno[3,2-d]pyrimidin-5-ium-2-yl]azetidin-3-yl] 3-methylsulfanyl-propanoate]	< 100 nM	< 100 nM
CN(c1nc(N2CC(OC(=O)c3ccccc3)C2)nc2c1[S+]([O-])CC2)C1CCOCC1 (centres unmarked) [Example 16, [1-[4-[methyl(tetra-hydropyran-4-yl)amino]-5-oxido-6,7-dihydro-thieno[3,2-d]pyrimidin-5-ium-2-yl]azetidin-3-yl] benzoate]	< 100 nM	< 100 nM
CN(c1nc(N2CC(OC(=O)c3ccn(C)n3)C2)nc2c1[S+]([O-])CC2)C1CCOCC1 (centres unmarked) [Example 17, [1-[4-[methyl(tetra-hydropyran-4-yl)amino]-5-oxido-6,7-dihydro-thieno[3,2-d]pyrimidin-5-ium-2-yl]azetidin-3-yl] 1-methylpyrazole-3-carboxylate]	< 100 nM	< 100 nM
CN(c1nc(N2CC(OC(=O)c3cnn(C)c3)C2)nc2c1[S+]([O-])CC2)C1CCOCC1 (centres unmarked) [Example 18, [1-[4-[methyl(tetra-hydropyran-4-yl)amino]-5-oxido-6,7-dihydro-thieno[3,2-d]pyrimidin-5-ium-2-yl]azetidin-3-yl] 1-methylpyrazole-4-carboxylate]	< 100 nM	< 100 nM
CN(c1nc(N2CC(OC(=O)c3cn(C)cn3)C2)nc2c1[S+]([O-])CC2)C1CCOCC1 (centres unmarked) [Example 19, [1-[4-[methyl(tetra-hydropyran-4-yl)amino]-5-oxido-6,7-dihydro-thieno[3,2-d]pyrimidin-5-ium-2-yl]azetidin-3-yl] 1-methylimidazole-4-carboxylate]	< 100 nM	< 100 nM
Cc1nc(C(=O)OC2CN(c3nc4c(c(N(C)C5CCOCC5)n3)[S+]([O-])CC4)C2)co1 (centres unmarked) [Example 20, [1-[4-[methyl(tetra-hydropyran-4-yl)amino]-5-oxido-6,7-dihydro-thieno[3,2-d]pyrimidin-5-ium-2-yl]azetidin-3-yl] 2-methyloxazole-4-carboxylate]	< 100 nM	< 100 nM
